Measured values reported in patent US20260356826A1, “SALTS OF AMINO QUINAZOLINE DERIVATIVES” (CHIESI FARMACEUTICI S.P.A., priority 2023, published 2026).
Values after ≈ are worked out from the molar mass of the structure shown. “Also recorded” adds a separate entry of the source. Counter-ions that a name gives are not always drawn.

Experiments:
[1] = Dissolution in Fasted State Simulated Gastric Fluid (FaSSGF), manual experiment, 37 °C; type: physicochemical; conditions: for Solubility: 37 °C
Description: The dissolution in Fasted State Simulated Gastric Fluid (FaSSGF) of mesylate salt Form 2 of the compound A of Example 2 and esylate salt Form 1 of Example 6 in comparison with the free base Form A and with other salts was tested by means of manual experiment. The medium for simulated oral fluids was FaSSGF obtained from Biorelevant.com Ltd. The experiments were conducted for 60 minutes at 37 °C.
General preparation of salts: in a round-bottomed flask, 200 mg of compound A free base Form A according to Example 1 (0.52 mmol) were suspended in 5 ml of solvent and stirred at RT. Acetone was employed for bromide, ethanedisulfonate, malonate, sulfate, saccharinate, tosylate, orotate, besylate, hemisulfate, phosphate and tartrate salts; water was employed for chloride salt; ethyl formate was employed for maleate, oxalate, gentisicate, fumarate and mandelate salts; tetrahydrofuran was employed for camphorsulfonate and pamoate salts; isopropyl acetate was employed for 4-hydroxybenzoate and methanol for camphorate salt. The corresponding acid was added under stirring in equimolar amount (except for hemisulfate, added in 0.5 molar amount). After 1 hour the crystalline solid was isolated by filtration, washed with the corresponding solvent (2×1 ml) and dried under nitrogen for 2 hours.
The quantification of the dissolved amount was done by LC/UV system at different checkpoints up to 60 minutes. The saturation solution concentration was around 25-30 mg/ml. […] In a second experiment, the quantification was repeated with saturation solution concentration 170 mg/ml for the mesylate salt Form 2 and 100 mg/ml for the esylate salt Form 1. The results are reported in tables 8A, 8B, 8C, 8D and FIG. 28.

[2] = local delivery; cited from earlier work
[3] = preclinical models; cited from earlier work
[4] = tested on: P2X3; conditions: disclosed in WO2020239951 A1; cited from earlier work
[5] = Comparative stability at 40 °C and 75% RH at open conditions (UPLC/UV and XRPD); type: physicochemical; conditions: 40 °C/75% RH open
Description: In a second experiment, approximately 100 mg of compound A mesylate salt Form 2 according to Example 2, free base Form A according to Example 1 and esylate salt Form 1 according to Example 6 were stored in three open amber glass vials covered with filter paper to simulate open conditions. The samples were stored in a stability chamber at 75% RH and 40 °C to compare their stability. At the time points 0, 28, 56, 84 days the corresponding samples were removed from the stability chambers. After conditioning at RT, the samples were analyzed by UPLC/UV and XRPD.

[6] = Two-sector dissolution study (FaSSGF then FaSSIF), parachute effect; type: physicochemical; conditions: third experiment
Description: The dissolution behaviour of mesylate salt Form 2 of compound A was studied in a two-sector model in comparison with free base Form A to evaluate a possible “spring-parachute effect”.
The parachute effect is observable in two-sector dissolution studies. A test compound is incubated with FaSSGF and its concentration is monitored over time. FaSSIF is then added to the solution whilst continuing the monitoring. The period of time in which the test compound remains in solution without or before precipitating refers to the supersaturation time and represents the parachute effect.
The experiment was conducted using DISS Profiler 6 Channel Pion. The free base Form A and mesylate salt Form 2 of compound A were each incubated in 8 ml of FaSSGF (pH 1.6) for 20 minutes at the concentration of 350 mg/250 ml. 16 ml of FaSSIF concentrated 1.5× (pH 6.5) was added with an incubation time of 180 minutes. The resulting target pH should be approximately 5-6. The experiment was conducted at 37 °C. The entire dissolution profile was monitored until the end of the experiment to evaluate a possible parachute effect, its duration and to evaluate the maximum solubility reached after the addition of FaSSIF.
A second experiment was conducted, with an additional step of adjusting the pH to 6.5 after FaSSIF addition. Both free base Form A and mesylate salt Form 2 of compound A were tested.
A third experiment was conducted on esylate salt Form 1 of compound A, using the same protocol of the second experiment, with free base Form A and mesylate salt Form 2 of compound A as controls. The experiment was aimed at evaluating comparatively a possible parachute effect of the esylate salt and its duration. Precipitation of the free base was observed after roughly 20 minutes, while precipitation of the esylate salt and mesylate salt were observed after 30 and 40 minutes respectively.

[7] = tested on: P2X3; conditions: oral; cited from earlier work
[8] = Dynamic vapour sorption (DVS), hygroscopicity; type: physicochemical; conditions: between 20% and 80% RH
Description: Moisture sorption/desorption data were collected on a TA Instruments Vapor Sorption Analyzer Q5000SA.
First step: sorption data was collected in the range 40% to 90% relative humidity (RH).
Second Step: desorption, sorption and desorption data were collected over a range of 0% to 90% RH at 10% RH intervals under a nitrogen purge. Samples were not dried prior to analysis. Equilibrium criteria used for analysis were less than 0.100% weight change in 20 minutes, with a maximum equilibration time of 1 hour if the weight criterion was not met. Data were not corrected for the initial moisture content of the samples. NaBr was used as humidity verification.
Moisture sorption/desorption data were also collected on a ProUmid SnS 23 equipped with a 23 autosampler following Method 1.
In the first step sorption data was collected in the range 0% to 90% RH. Samples were not dried prior to analysis.
In the second Step desorption, sorption and desorption data were collected over a range of 0% to 90% (RH) at 10% RH intervals under a nitrogen purge. Data were not corrected for the initial moisture content of the samples.

[9] = second experiment (saturation conc. 170 mg/ml mesylate, 100 mg/ml esylate), 0 min
[10] = first experiment (saturation conc. around 25-30 mg/ml), 5 min

| Solubility [1, 9] [µg/mL] | Solubility ([1]; second experiment, 60 min) [µg/mL] | Solubility ([1]; second experiment, 15 min) [µg/mL] | Solubility ([1]; second experiment, 30 min) [µg/mL] | SMILES | other results |
| --- | --- | --- | --- | --- | --- |
| 1010 | 21840 | – | – | COc1cc(-c2ccc(F)cn2)cc2c(N[C@H](C)c3noc(C)n3)ncnc12 [besylate] | – |
| – | – | – | – | Nc1ncnc2c1ncn2[C@@H]1O[C@H](COP(=O)(O)OP(=O)(O)OP(=O)(O)O)[C@@H](O)[C@H]1O [ATP, Adenosine 5-TriPhosphate] | Cough and bronchospasm [2]: initiates cough and bronchospasm; Citric acid-evoked and histamine-evoked cough [3]: enhances citric acid-evoked and histamine-evoked cough |
| 720 | 2880 | 2520 | – | COc1cc(-c2ccc(F)cn2)cc2c(N[C@H](C)c3noc(C)n3)ncnc12 [bromide] | – |
| 610 | 4970 | 4670 | 4860 | COc1cc(-c2ccc(F)cn2)cc2c(N[C@H](C)c3noc(C)n3)ncnc12 [tosylate] | – |
| 210 | 14320 | 15210 | 14850 | COc1cc(-c2ccc(F)cn2)cc2c(N[C@H](C)c3noc(C)n3)ncnc12 [phosphate] | – |
| 690 | 10870 | 8630 | – | COc1cc(-c2ccc(F)cn2)cc2c(N[C@H](C)c3noc(C)n3)ncnc12 [chloride] | – |
| 1280 (≈ 3370 µM) | 10990 (≈ 28900 µM) | 10880 (≈ 28600 µM) | 9300 (≈ 24400 µM) | COc1cc(-c2ccc(F)cn2)cc2c(N[C@H](C)c3noc(C)n3)ncnc12 [mandelate] | – |
| – | – | – | – | COc1cc(-c2ccc(F)cn2)cc2c(N[C@H](C)c3noc(C)n3)ncnc12 [Compound A, (R)-6-(5-fluoropyridin-2-yl)-8-methoxy-N-(1-(5-methyl-1,2,4-oxadiazol-3-yl)ethyl)quinazolin-4-amine] | P2X3 inhibition [4]: potent and selective P2X3 inhibitor |
| 1730 | 13870 | 10710 | 11700 | COc1cc(-c2ccc(F)cn2)cc2c(N[C@H](C)c3noc(C)n3)ncnc12 [oxalate] | Solubility [1, 10]: 90 µg/mL; Solubility ([1]; first experiment, 10 min): 90 µg/mL; Solubility ([1]; first experiment, 20 min): 80 µg/mL; Solubility ([1]; first experiment, 40 min): 90 µg/mL; Solubility ([1]; first experiment, 60 min): 90 µg/mL |
| 490 | 1060 | – | – | COc1cc(-c2ccc(F)cn2)cc2c(N[C@H](C)c3noc(C)n3)ncnc12 [ethanedisulfonate] | – |
| – | – | – | – | COc1cc(-c2ccc(F)cn2)cc2c(N[C@H](C)c3noc(C)n3)ncnc12 [esylate salt Form 1, (R)-6-(5-fluoropyridin-2-yl)-8-methoxy-N-(1-(5-methyl-1,2,4-oxadiazol-3-yl)ethyl)quinazolin-4-amine] | Stability ([5]; 84 days): surprisingly good stability during stressed storage; % area main peak (LC/UV) ([5]; 0 days): 99.9 % area; Solubility ([1]; first experiment (saturation conc. around 25-30 mg/ml), 5 min, listed as esylate Form 1, 5 min): 24270 µg/mL; Solubility ([1]; first experiment, 10 min, listed as esylate Form 1, 10 min): 24740 µg/mL; Solubility ([1]; first experiment, 20 min, listed as esylate Form 1, 20 min): 24870 µg/mL; Solubility ([1]; first experiment, 40 min, listed as esylate Form 1, 40 min): 24760 µg/mL; Solubility ([1]; first experiment, 60 min): ≥ 25000 µg/mL; Solubility ([1]; first experiment, 60 min, listed as esylate Form 1, 60 min): 24590 µg/mL; Solubility ([1]; second experiment, 30 min, listed as esylate Form 1, 30 min): 61300 µg/mL; Solubility ([1]; second experiment, 60 min, listed as esylate Form 1, 60 min): 68460 µg/mL; Solubility compared to free base Form A ([1]; 60 minutes): consistently higher solubility than the free base Form A during the 60 minutes time; Dissolution ([1]; first experiment, saturation conc. around 25-30 mg/ml): completely dissolved; Duration of the parachute effect compared to free base Form A [6]: longer duration of the parachute effect; Time of precipitation ([6]; protocol of the second experiment): 30 min |
| 30 | 6520 | 4890 | – | COc1cc(-c2ccc(F)cn2)cc2c(N[C@H](C)c3noc(C)n3)ncnc12 [pamoate] | – |
| 430 (≈ 1130 µM) | 830 (≈ 2180 µM) | 800 (≈ 2100 µM) | 870 (≈ 2290 µM) | COc1cc(-c2ccc(F)cn2)cc2c(N[C@H](C)c3noc(C)n3)ncnc12 [saccharinate] | Solubility [1, 10]: 900 µg/mL (≈ 2370 µM); Solubility ([1]; first experiment, 10 min): 1030 µg/mL (≈ 2710 µM); Solubility ([1]; first experiment, 20 min): 1090 µg/mL (≈ 2870 µM); Solubility ([1]; first experiment, 40 min): 1080 µg/mL (≈ 2840 µM); Solubility ([1]; first experiment, 60 min): 1020 µg/mL (≈ 2680 µM) |
| – | – | – | – | COc1cc(C(C)C)c(Oc2cnc(N)nc2N)cc1S(N)(=O)=O [AF-219] | Hypersensitivity of the cough reflex [7]: dramatically reduced |
| 550 | 5890 | 4980 | 5760 | COc1cc(-c2ccc(F)cn2)cc2c(N[C@H](C)c3noc(C)n3)ncnc12 [fumarate] | Solubility [1, 10]: 3290 µg/mL; Solubility ([1]; first experiment, 10 min): 3360 µg/mL; Solubility ([1]; first experiment, 20 min): 3350 µg/mL; Solubility ([1]; first experiment, 40 min): 3610 µg/mL; Solubility ([1]; first experiment, 60 min): 3580 µg/mL |
| 510 | 13450 | 10510 | 11840 | COc1cc(-c2ccc(F)cn2)cc2c(N[C@H](C)c3noc(C)n3)ncnc12 [camphorsulfonate] | – |
| – | – | – | – | COc1cc(-c2ccc(F)cn2)cc2c(N[C@H](C)c3noc(C)n3)ncnc12 [mesylate salt Form 6, (R)-6-(5-fluoropyridin-2-yl)-8-methoxy-N-(1-(5-methyl-1,2,4-oxadiazol-3-yl)ethyl)quinazolin-4-amine] | Hygroscopicity [8]: No hygroscopicity was noted; also recorded: substantially no hygroscopicity; Total water uptake [8]: 0.3% |
